Values of other authors as cited in patent US20140107050A1, “INCREASING BIOAVAILABILITY OF N-COUMAROYLDOPAMINE THROUGH CO-ADMINISTRATION WITH A CATECHOL-O-[…] (COMT) INHIBITOR” (Redefine Nutrition, LLC, priority 2012, published 2014).

What was measured:
[1] = target: T1, beta-adrenoreceptor (Homo sapiens, UniProt P07550); conditions: recent in vitro studies (Park 2005)
T1 construct: increase cAMP via beta 2-adrenoreceptors in myelocytic U937 cells; endogenous in cells; host or cells: U937 cells
T1 sequence (P07550 whole entry): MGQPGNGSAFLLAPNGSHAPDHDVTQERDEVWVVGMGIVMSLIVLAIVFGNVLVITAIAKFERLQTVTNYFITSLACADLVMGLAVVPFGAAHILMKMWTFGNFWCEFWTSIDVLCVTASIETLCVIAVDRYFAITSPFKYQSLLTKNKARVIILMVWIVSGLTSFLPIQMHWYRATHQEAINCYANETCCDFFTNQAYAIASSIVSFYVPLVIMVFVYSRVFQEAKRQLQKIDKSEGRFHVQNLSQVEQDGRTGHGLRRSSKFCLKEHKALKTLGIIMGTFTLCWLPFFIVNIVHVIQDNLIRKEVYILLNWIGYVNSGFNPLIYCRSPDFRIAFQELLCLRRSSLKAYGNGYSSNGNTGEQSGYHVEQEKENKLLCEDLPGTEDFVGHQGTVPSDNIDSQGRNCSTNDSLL

[2] = target: T2, catechol-o-methyltransferase (COMT) (Homo sapiens, UniProt P21964); conditions: values taken from cited literature; read-out: half maximal inhibitory concentration (IC50) for COMT inhibition
T2 sequence (P21964 1-271): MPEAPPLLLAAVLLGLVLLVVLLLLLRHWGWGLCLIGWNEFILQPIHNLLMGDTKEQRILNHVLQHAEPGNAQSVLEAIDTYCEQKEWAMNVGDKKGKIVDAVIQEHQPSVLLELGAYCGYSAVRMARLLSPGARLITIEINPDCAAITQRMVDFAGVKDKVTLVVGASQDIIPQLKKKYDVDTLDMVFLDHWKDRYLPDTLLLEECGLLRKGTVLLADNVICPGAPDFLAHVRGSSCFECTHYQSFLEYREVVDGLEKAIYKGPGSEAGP

## O=C(/C=C/c1ccc(O)cc1)NCCc1ccc(O)c(O)c1 [N-coumaroyldopamine]
[1]
  beta-adrenoreceptor agonist activity: acts as a beta-adrenoreceptor agonist

## O=C(/C=C/c1ccc(O)c(O)c1)O[C@@H]1C[C@](O)(C(=O)O)C[C@@H](O)[C@H]1O [chlorogenic acid]
[2]
  IC50: 1300 to 1400 nM

## O=c1c(O)c(-c2ccc(O)c(O)c2)oc2cc(O)cc(O)c12 [quercetin]
[2]
  IC50: ~500 nM
